# Legend:
# Assay in all cases: Test D controlled growth environment herbicide test, pre- and postemergence
# Assay type in all cases: in vivo
# [1] = system: galium (catchweed bedstraw, Galium aparine)
# How it was run: (§1)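 Species sown in silt loam and sprayed preemergence, or grown in peat-based medium to 2–18 cm (1- to 4-leaf stage) and sprayed postemergence, with compounds in non-phytotoxic solvent plus surfactant. Visual injury scored versus controls after 14–21 d in a controlled environment, 0 (no effect) to 100 (complete control).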
# [2] = system: buckwheat, wild (wild buckwheat, Polygonum convolvulus)
# How it was run: as §1
# [3] = system: wheat, winter (winter wheat, Triticum aestivum)
# How it was run: as §1
# kochia (Kochia scoparia) = system: kochia (Kochia scoparia)
# How it was run: as §1
# [4] = system: ryegrass, Italian (Italian ryegrass, Lolium multiflorum)
# How it was run: as §1
# [5] = system: field poppy (Papaver rhoeas)
# How it was run: as §1
# [6] = system: Russian thistle (Salsola kali)
# How it was run: as §1
# [7] = system: bluegrass (annual bluegrass, Poa annua)
# How it was run: as §1
# [8] = system: chickweed (common chickweed, Stellaria media)
# How it was run: as §1
# [9] = system: canarygrass (Phalaris minor)
# How it was run: as §1
# [10] = system: blackgrass (Alopecurus myosuroides)
# How it was run: as §1
# [11] = system: pigweed (Amaranthus retroflexus)
# How it was run: as §1
# [12] = system: foxtail, green (green foxtail, Setaria viridis)
# How it was run: as §1
# [13] = Postemergence, 31 g ai/ha, scale 0 to 100 (0 no effect, 100 complete control)
# [14] = Postemergence, 125 g ai/ha, visual rating on scale 0 (no effect) to 100 (complete control), 14 to 21 d
# [15] = Postemergence, 250 g ai/ha, scale 0 to 100 (0 no effect, 100 complete control)
# [16] = Preemergence, 125 g ai/ha, scale 0 to 100 (0 no effect, 100 complete control)
# [17] = Preemergence, 250 g ai/ha, scale 0 to 100 (0 no effect, 100 complete control)
# [18] = postemergence, 62 g ai/ha, scale 0 to 100, 0 no effect, 100 complete control
# [19] = Preemergence, 62 g ai/ha, scale 0 to 100 (0 no effect, 100 complete control)
structure (smiles),measurement,setting,value
Cc1nn(C)c(=O)c(-c2c(C)sc3ccc(Cl)cc23)c1O [Compound 104],Galium plant response rating,[1]; [13],85
same,"Plant response rating, Galium",[1]; [14],100
same,"Plant response rating, Galium",[1]; [15],100
same,"Plant response rating (scale of 0 to 100), Galium","[1]; Preemergence, 31 g ai/ha",65
same,"Plant response rating (scale of 0 to 100), Galium","[1]; Preemergence, 62 g ai/ha",95
same,"Plant response rating, Galium",[1]; [16],100
same,"Plant response rating, Galium",[1]; [17],100
same,"Plant response rating, Galium",[1]; [18],90
same,"Buckwheat, Wild plant response rating",[2]; [13],90
same,"Plant response rating, Buckwheat, Wild",[2]; [14],100
same,"Plant response rating, Buckwheat, Wild",[2]; [15],100
same,"Plant response rating (scale of 0 to 100), Buckwheat, Wild","[2]; Preemergence, 31 g ai/ha",0
same,"Plant response rating, Buckwheat, Wild",[2]; [19],60
same,"Plant response rating, Buckwheat, Wild",[2]; [16],55
same,"Plant response rating, Buckwheat, Wild",[2]; [17],95
same,"Plant response rating, Buckwheat, Wild",[2]; [18],95
same,"Wheat, Winter plant response rating",[3]; [13],5
same,"Plant response rating, Wheat, Winter",[3]; [14],20
same,"Plant response rating, Wheat, Winter",[3]; [15],25
same,"Plant response rating (scale of 0 to 100), Wheat, Winter","[3]; Preemergence, 31 g ai/ha",0
same,"Plant response rating (scale of 0 to 100), Wheat, Winter","[3]; Preemergence, 62 g ai/ha",0
same,"Plant response rating, Wheat, Winter",[3]; [16],5
same,"Plant response rating, Wheat, Winter",[3]; [17],15
same,"Plant response rating, Wheat, Winter",[3]; [18],15
same,Kochia plant response rating,kochia (Kochia scoparia); [13],95
same,"Plant response rating, Kochia",kochia (Kochia scoparia); [14],100
same,"Plant response rating, Kochia",kochia (Kochia scoparia); [15],100
same,"Plant response rating (scale of 0 to 100), Kochia","kochia (Kochia scoparia); Preemergence, 31 g ai/ha",30
same,"Plant response rating (scale of 0 to 100), Kochia","kochia (Kochia scoparia); Preemergence, 62 g ai/ha",75
same,"Plant response rating, Kochia",kochia (Kochia scoparia); [16],95
same,"Plant response rating, Kochia",kochia (Kochia scoparia); [17],100
same,"Plant response rating, Kochia",kochia (Kochia scoparia); [18],95
same,"Ryegrass, Italian plant response rating",[4]; [13],90
same,"Plant response rating, Ryegrass, Italian",[4]; [14],95
same,"Plant response rating, Ryegrass, Italian",[4]; [15],95
same,"Plant response rating (scale of 0 to 100), Ryegrass, Italian","[4]; Preemergence, 31 g ai/ha",100
same,"Plant response rating (scale of 0 to 100), Ryegrass, Italian","[4]; Preemergence, 62 g ai/ha",100
same,"Plant response rating, Ryegrass, Italian",[4]; [16],100
same,"Plant response rating, Ryegrass, Italian",[4]; [17],100
same,"Plant response rating, Ryegrass, Italian",[4]; [18],95
same,Field Poppy plant response rating,[5]; [13],15
same,"Plant response rating, Field Poppy",[5]; [14],75
same,"Plant response rating, Field Poppy",[5]; [15],80
same,"Plant response rating (scale of 0 to 100), Field Poppy","[5]; Preemergence, 31 g ai/ha",0
same,"Plant response rating (scale of 0 to 100), Field Poppy","[5]; Preemergence, 62 g ai/ha",100
same,"Plant response rating, Field Poppy",[5]; [16],100
same,"Plant response rating, Field Poppy",[5]; [17],100
same,"Plant response rating, Field Poppy",[5]; [18],65
same,Russian Thistle plant response rating,[6]; [13],55
same,"Plant response rating, Russian Thistle",[6]; [14],65
same,"Plant response rating, Russian Thistle",[6]; [15],85
same,"Plant response rating (scale of 0 to 100), Russian Thistle","[6]; Preemergence, 31 g ai/ha",0
same,"Plant response rating (scale of 0 to 100), Russian Thistle","[6]; Preemergence, 62 g ai/ha",10
same,"Plant response rating, Russian Thistle",[6]; [16],55
same,"Plant response rating, Russian Thistle",[6]; [17],75
same,"Plant response rating, Russian Thistle",[6]; [18],60
same,Bluegrass plant response rating,[7]; [13],10
same,"Plant response rating, Bluegrass",[7]; [14],20
same,"Plant response rating, Bluegrass",[7]; [15],30
same,"Plant response rating (scale of 0 to 100), Bluegrass","[7]; Preemergence, 31 g ai/ha",35
same,"Plant response rating, Bluegrass",[7]; [19],35
same,"Plant response rating, Bluegrass",[7]; [16],70
same,"Plant response rating, Bluegrass",[7]; [17],75
same,"Plant response rating, Bluegrass",[7]; [18],10
same,Chickweed plant response rating,[8]; [13],95
same,"Plant response rating, Chickweed",[8]; [14],100
same,"Plant response rating, Chickweed",[8]; [15],100
same,"Plant response rating (scale of 0 to 100), Chickweed","[8]; Preemergence, 31 g ai/ha",100
same,"Plant response rating (scale of 0 to 100), Chickweed","[8]; Preemergence, 62 g ai/ha",100
same,"Plant response rating, Chickweed",[8]; [16],95
same,"Plant response rating, Chickweed",[8]; [17],100
same,"Plant response rating, Chickweed",[8]; [18],100
same,Canarygrass plant response rating,[9]; [13],45
same,"Plant response rating, Canarygrass",[9]; [14],80
same,"Plant response rating, Canarygrass",[9]; [15],85
same,"Plant response rating (scale of 0 to 100), Canarygrass","[9]; Preemergence, 31 g ai/ha",65
same,"Plant response rating (scale of 0 to 100), Canarygrass","[9]; Preemergence, 62 g ai/ha",85
same,"Plant response rating, Canarygrass",[9]; [16],95
same,"Plant response rating, Canarygrass",[9]; [17],100
same,"Plant response rating, Canarygrass",[9]; [18],65
same,Blackgrass plant response rating,[10]; [13],35
same,"Plant response rating, Blackgrass",[10]; [14],65
same,"Plant response rating, Blackgrass",[10]; [15],70
same,"Plant response rating (scale of 0 to 100), Blackgrass","[10]; Preemergence, 31 g ai/ha",25
same,"Plant response rating, Blackgrass",[10]; [19],60
same,"Plant response rating, Blackgrass",[10]; [16],65
same,"Plant response rating, Blackgrass",[10]; [17],75
same,"Plant response rating, Blackgrass",[10]; [18],40
same,Pigweed plant response rating,[11]; [13],100
same,"Plant response rating, Pigweed",[11]; [14],100
same,"Plant response rating, Pigweed",[11]; [15],100
same,"Plant response rating (scale of 0 to 100), Pigweed","[11]; Preemergence, 31 g ai/ha",60
same,"Plant response rating (scale of 0 to 100), Pigweed","[11]; Preemergence, 62 g ai/ha",100
same,"Plant response rating, Pigweed",[11]; [16],100
same,"Plant response rating, Pigweed",[11]; [17],100
same,"Plant response rating, Pigweed",[11]; [18],100
same,"Foxtail, Green plant response rating",[12]; [13],30
same,"Plant response rating, Foxtail, Green",[12]; [14],85
same,"Plant response rating, Foxtail, Green",[12]; [15],90
same,"Plant response rating (scale of 0 to 100), Foxtail, Green","[12]; Preemergence, 31 g ai/ha",20
same,"Plant response rating (scale of 0 to 100), Foxtail, Green","[12]; Preemergence, 62 g ai/ha",70
same,"Plant response rating, Foxtail, Green",[12]; [16],100
same,"Plant response rating, Foxtail, Green",[12]; [17],100
same,"Plant response rating, Foxtail, Green",[12]; [18],70

# Source: patent US10597388B2, “Pyridazinone herbicides” (FMC CORPORATION, priority 2014, dated 2020)
